Laboratory results as given in patent US8993725B2, “Notch-based fusion proteins and uses thereof” (The Trustees of Columbia University in the City of New York, priority 2004, dated 2015).
“Also recorded” adds a separate entry of the source.

How the values were obtained:
Assay type in all cases: cell-based, Human
Ad-N1IC-transduced HUVEC = test: Notch-induced budding of Ad-N1IC-transduced HUVEC on gel; details: for Effect of receptor tyrosine kinase inhibitors on budding of Ad-N1IC-HUVEC: inhibitors at 1 μM, Ad-N1IC 40 MOI, complete medium
Method: HUVEC were transduced with either Ad-LacZ or Ad-N1IC at 40 MOI. FIGS. 23A-23C show the effect of inhibitors for receptor tyrosine kinases on Notch-induced HUVEC budding. FIG. 23A is a photograph of budding of Ad-N1IC-transduced HUVEC treated with PD166866, ZD1893 at 1 μM and SU5416 at 0.5 μM. […] FIGS. 23F-G show promotion of Notch-induced HUVEC budding with PlGF stimulation. Ad-N1IC-transduced HUVEC were cultured on collagen gel with SFM, instead of complete medium, in the absence or presence of 50 ng/ml PlGF. […] FIGS. 23H-I show the effect of Flt-1 siRNA transfection on Flt1 expression. Ad-N1IC-transduced HUVEC were transfected with 200 pmol of either control (CT) or Flt-1 siRNA. […] Ad-N1IC-transduced HUVEC were transfected with either 100 or 200 pmol of siRNA and cultured on collagen gel for 2 days.
Either Ad-LacZ or Ad-N1IC-HUVEC at a MOI of 40 pfu/cell were cultured on collagen gel for 5 days in the absence or presence of GM6001 at 50 μm.
To test whether Notch signaling is down-stream of VEGF, we evaluated three distinct inhibitors for receptor tyrosine kinases, including VEGFR on N1IC-induced HUVEC budding, because three growth factors existed in complete medium (FIG. 23A-C). […] Thus, we examined whether activation of Notch signaling affected Flt1/VNGFR1 expression in HUVEC, because SU5416 inhibits both Flt1 and Flk1 kinase activity (15). […] PlGF increased the number of Ad-N1IC-HUVEC buds by 150%, compared to the absence of PlGF (FIG. 23F). Moreover, PlGF increased HUVEC buds containing multiple filopodia by 250% (FIG. 23G).

[1] = tested on: Notch signaling (CBF1 promoter activity) in HUVEC; test: VEGF-induced Notch signaling, CBF1 promoter / CSL-luciferase reporter activity in HUVEC; details: Ad-VEGF-transduced HUVEC, 20 MOI
Method: To determine VEGF-induced Notch signaling, HUVEC which were infected with adenovirus were used. HUVEC plated 1-day prior in 6 well plates at 8.0×10^5 were infected with either Ad-LacZ as control or Ad-VEGF at indicated m.o.i. in the presence or absence of Ad-N1ECD/Fc. Two days after infection, infected HUVEC were re-seeded into 24-well plate at 1.5×10^5 cell in triplicate and cultured for 24 hours, and then transfected with 12.5 ng pRL-SV40 (Promega) and 137.5 ng pGA981-6 using Effectene transfection reagent (Qiagen). Cells were harvested either 1 or 2 days post-transfection and luciferase activity was determined by using the Dual-Luciferase® Reporter Assay System (Promega).
One can measure Notch signaling function by measuring transcriptional activity of CBF1 promoter, which is activated by binding of Notch-IC to CBF1. We measured CBF1 promoter activity in HUVEC which was infected with adenovirus encoding VECF-165 at different MOI (FIG. 6). Induction of CBF1 promoter was clearly detected in Ad-VEGF-infected HUVEC, compared to Ad-LacZ-infected cells in the MOI dependent manner. […] Thus VEGF induced Notch signaling activity.

HUVEC = HUVEC proliferation (CCK-8 kit); details: SFM with 1% FBS, 4 days
Method: These Figures show proliferation of Ad-VEGF165-transduced HUVEC. HUVEC were transduced with Ad-VEGF165 at the indicated dosages. Ad-LacZ was also co-infected to make the same total amount of adenovirus at a MOI of 40 pfu/cell. HUVEC were suspended in SFM supplemented with 1% FBS and then plated at 1×10^4 cells/well in 24-well multi-well plates with 0.4 ml of medium. After 4 days, cell numbers were determined using the CCK-8 kit and the results are indicated as the ratio of cell numbers determined to the number of control cells, which were transduced with Ad-GFP at a MOI of 40 pfu/cell. […] Ad-VEGF-transduced HUVEC were treated with SU5416 at the indicated dosages.
These Figures show the effect of alteration of Notch signaling on cell proliferation. The cells were transduced with the indicated adenoviruses. Ad-GFP was also co-infected to make the same total amount of adenovirus at a MOI of 60 pfu/cell. After 4 days, cell numbers were determined using the CCK-8 kit and results are indicated as the ratio of cell numbers determined to the number of control cells, which were transduced with AD-GFP at MOI of 60 pfu/cell. […] Transduced HUVEC were suspended in complete medium and then plated at 1×10^4 cells/well in 24-well multiwell plates with 0.4 ml of indicated medium (□: Ad-N1IC; ▪: Ad-N1ECDFc). […]

With `CNC(=O)[C@H](Cc1c[nH]c2ccccc12)NC(=O)[C@@H](CC(=O)NO)CC(C)C` [GM6001] the “Effect on budding of Ad-N1IC-HUVEC on collagen gel” value (Ad-N1IC-transduced HUVEC; GM6001 at 50 μm, 5 days) was “inhibition of budding; also recorded: clearly decreased budding” and the “Effect on budding of Ad-N1IC-HUVEC on fibrin gel” value (Ad-N1IC-transduced HUVEC; data not shown) was “clearly decreased budding”.

`COc1cc(OC)cc(-c2cc3cnc(N)nc3nc2NC(=O)NC(C)(C)C)c1` [PD166866] was tested, and the “Effect of receptor tyrosine kinase inhibitors on budding of Ad-N1IC-HUVEC” value (Ad-N1IC-transduced HUVEC) was “Neither PD166866 or ZD1893 affected budding”.

For `Cc1cc(C)c(/C=C2\C(=O)Nc3ccccc32)[nH]1` [SU5416, reference compound], the “Effect of compound treatment on VEGF-induced CSL-luciferase reporter activity” value [1] was “decreased VEGF-induced CSL-luciferase reporter activity”, the “Effect of receptor tyrosine kinase inhibitors on budding of Ad-N1IC-HUVEC” value (Ad-N1IC-transduced HUVEC) was “clearly inhibited” and the “Dose-dependency of effect on budding versus viability of Ad-N1IC-HUVEC” value (Ad-N1IC-transduced HUVEC; lower concentrations) was “selectively inhibited budding of Ad-N1IC-HUVEC with less reduction of viability at lower concentrations”. The “Proliferation of Ad-VEGF-transduced HUVEC” value (HUVEC) was “inhibitory effect”.

With `COc1cc2ncnc(Nc3ccc(F)c(Cl)c3)c2cc1OCCCN1CCOCC1` [ZD1893] the “Effect of receptor tyrosine kinase inhibitors on budding of Ad-N1IC-HUVEC” value (Ad-N1IC-transduced HUVEC) was “Neither PD166866 or ZD1893 affected budding”.

B1: PlGF: a selective ligand for Flt1 (protein, UniProt P49763 19-221, looked up)
Placenta growth factor: LPAVPPQQWALSAGNGSSEVEVVPFQEVWGRSYCRALERLVDVVSEYPSEVEHMFSPSCVSLLRCTGCCGDENLHCVPVETANVTMQLLKIRSGDRPSYVELTFSQHVRCECRHSPGRQSPDMPGDFRADAPSFLPPRRSLPMLFRMEWGCALTGSQSAVWPSSPVPEEIPRMHPGRNGKKQQRKPLREKMKPERCGDAVPRR
With B1 the “Increase of HUVEC buds containing multiple filopodia” value (Ad-N1IC-transduced HUVEC; 50 ng/ml PlGF, SFM, collagen gel) was 250% and the “Increase of the number of Ad-N1IC-HUVEC buds” value (Ad-N1IC-transduced HUVEC; 50 ng/ml PlGF, SFM, collagen gel, compared to the absence of PlGF) was 150%.
